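48-hour exposure; five concentrations; linearly interpolated endpoints. GI50: concentration for 50% inhibition of growth.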 The source made the active and inactive calls. Rule as the data show it: active = GI50 up to about 1.1 µM and inactive = higher.
Experiments:
Experiment in all cases: growth of human tumour cells (NCI), 48 h
SK-MEL-2 = system: SK-MEL-2
MCF7 = system: MCF7
Hs-578T = system: Hs-578T
UACC-257 = system: UACC-257
HCT-15 = system: HCT-15
RPMI-8226 = system: RPMI-8226
SW-620 = system: SW-620
KM12 = system: KM12
SK-MEL-28 = system: SK-MEL-28
HT-29 = system: HT-29
MDA-MB-231 = system: MDA-MB-231
RXF 393 = system: RXF 393
OVCAR-8 = system: OVCAR-8
UACC-62 = system: UACC-62
TK-10 = system: TK-10
ACHN = system: ACHN
OVCAR-4 = system: OVCAR-4
A549 = system: A549
IGROV-1 = system: IGROV-1
NCI-H522 = system: NCI-H522
SR = system: SR
SK-MEL-5 = system: SK-MEL-5
Malme-3M = system: Malme-3M
U-251 = system: U-251
EKVX = system: EKVX
NCI/ADR-RES = system: NCI/ADR-RES
HCC 2998 = system: HCC 2998
K562 = system: K562
M14 = system: M14
HOP-92 = system: HOP-92
COLO 205 = system: COLO 205
HOP-62 = system: HOP-62
A498 = system: A498
SNB-75 = system: SNB-75
CCRF-CEM = system: CCRF-CEM
UO-31 = system: UO-31
SF-268 = system: SF-268
NCI-H23 = system: NCI-H23
MDA-N = system: MDA-N
OVCAR-3 = system: OVCAR-3
MOLT-4 = system: MOLT-4
NCI-H226 = system: NCI-H226
DU-145 = system: DU-145
NCI-H460 = system: NCI-H460
SK-OV-3 = system: SK-OV-3
MDA-MB-435 = system: MDA-MB-435
LOX IMVI = system: LOX IMVI
SF-295 = system: SF-295
OVCAR-5 = system: OVCAR-5
PC-3 = system: PC-3
BT-549 = system: BT-549
786-0 = system: 786-0
SNB-19 = system: SNB-19
T47D = system: T47D
CAKI-1 = system: CAKI-1
SN12C = system: SN12C
HCT-116 = system: HCT-116
SF-539 = system: SF-539
HL-60 = system: HL-60

Clc1ccc(CCNCCNC2(c3cc4ccccc4s3)CCCCC2)cc1Cl was tested, and the GI50 (SK-MEL-2) was 1.76 µM (inactive), the GI50 (MCF7) was 1.71 µM (inactive) and the GI50 (Hs-578T) was 2.05 µM (inactive). The GI50 (UACC-257) was 1.81 µM (inactive), the GI50 (HCT-15) was 1920 nM and the GI50 (RPMI-8226) was 2.34 µM (inactive). The GI50 (SW-620) was 1.86 µM (inactive), the GI50 (KM12) was 1.6 µM (inactive) and the GI50 (SK-MEL-28) was 1.79 µM (inactive). For the same molecule, the GI50 (HT-29) was 1.83 µM (inactive), the GI50 (MDA-MB-231) was 1.78 µM (inactive) and the GI50 (RXF 393) was 2.01 µM (inactive). For the same molecule, the GI50 (OVCAR-8) was 1.84 µM (inactive), the GI50 (UACC-62) was 1.74 µM (inactive) and the GI50 (TK-10) was 1.7 µM (inactive). The GI50 (ACHN) was 1.73 µM (inactive), the GI50 (OVCAR-4) was 1.64 µM (inactive) and the GI50 (A549) was 1.81 µM (inactive). For the same molecule, the GI50 (IGROV-1) was 1.81 µM (inactive), the GI50 (NCI-H522) was 1.84 µM (inactive) and the GI50 (SR) was 2.02 µM (inactive). For the same molecule, the GI50 (SK-MEL-5) was 1.72 µM (inactive), the GI50 (Malme-3M) was 1.88 µM (inactive) and the GI50 (U-251) was 1.63 µM (inactive). The GI50 (EKVX) was 2.08 µM (inactive), the GI50 (NCI/ADR-RES) was 1.8 µM (inactive) and the GI50 (HCC 2998) was 1.5 µM (inactive). The GI50 (K562) was 2.31 µM (inactive), the GI50 (M14) was 2.01 µM (inactive) and the GI50 (HOP-92) was 1.68 µM (inactive). The GI50 (COLO 205) was 1.58 µM (inactive), the GI50 (HOP-62) was 1.26 µM (inactive) and the GI50 (A498) was 1.78 µM (inactive). The GI50 (SNB-75) was 1.96 µM (inactive), the GI50 (CCRF-CEM) was 2.54 µM (inactive) and the GI50 (UO-31) was 1.85 µM (inactive). For the same molecule, the GI50 (SF-268) was 1.79 µM (inactive), the GI50 (NCI-H23) was 1.78 µM (inactive) and the GI50 (MDA-N) was 1.84 µM (inactive). The GI50 (OVCAR-3) was 1.45 µM (inactive), the GI50 (MOLT-4) was 2.49 µM (inactive) and the GI50 (NCI-H226) was 1.87 µM (inactive). The GI50 (DU-145) was 1.88 µM (inactive), the GI50 (NCI-H460) was 1.73 µM (inactive) and the GI50 (SK-OV-3) was 1.46 µM (inactive). The GI50 (MDA-MB-435) was 2.02 µM (inactive), the GI50 (LOX IMVI) was 1.74 µM (inactive) and the GI50 (SF-295) was 1.59 µM (inactive). For the same molecule, the GI50 (OVCAR-5) was 1.85 µM (inactive), the GI50 (PC-3) was 1.73 µM (inactive) and the GI50 (BT-549) was 1.94 µM (inactive). For the same molecule, the GI50 (786-0) was 1.95 µM (inactive), the GI50 (SNB-19) was 1.92 µM (inactive) and the GI50 (T47D) was 1.95 µM (inactive). For the same molecule, the GI50 (CAKI-1) was 1.87 µM (inactive), the GI50 (SN12C) was 1.96 µM (inactive) and the GI50 (HCT-116) was 1.73 µM (inactive).

For CNC(=O)Nc1ccccc1, the GI50 (SK-MEL-2) was > 100 µM (inactive), the GI50 (MCF7) was > 100 µM (inactive) and the GI50 (Hs-578T) was > 100 µM (inactive). For the same molecule, the GI50 (UACC-257) was > 100 µM (inactive), the GI50 (HCT-15) was greater than 100000 nM and the GI50 (RPMI-8226) was > 100 µM (inactive). The GI50 (SW-620) was > 100 µM (inactive), the GI50 (KM12) was > 100 µM (inactive) and the GI50 (SF-539) was > 100 µM (inactive). For the same molecule, the GI50 (SK-MEL-28) was > 100 µM (inactive), the GI50 (HT-29) was > 100 µM (inactive) and the GI50 (MDA-MB-231) was > 100 µM (inactive). The GI50 (RXF 393) was > 100 µM (inactive), the GI50 (OVCAR-8) was > 100 µM (inactive) and the GI50 (UACC-62) was > 100 µM (inactive). The GI50 (TK-10) was > 100 µM (inactive), the GI50 (ACHN) was > 100 µM (inactive) and the GI50 (OVCAR-4) was > 100 µM (inactive). For the same molecule, the GI50 (A549) was > 100 µM (inactive), the GI50 (HL-60) was > 100 µM (inactive) and the GI50 (IGROV-1) was > 100 µM (inactive). For the same molecule, the GI50 (NCI-H522) was > 100 µM (inactive), the GI50 (SR) was > 100 µM (inactive) and the GI50 (SK-MEL-5) was > 100 µM (inactive). For the same molecule, the GI50 (Malme-3M) was > 100 µM (inactive), the GI50 (U-251) was > 100 µM (inactive) and the GI50 (EKVX) was > 100 µM (inactive). For the same molecule, the GI50 (NCI/ADR-RES) was > 100 µM (inactive), the GI50 (HCC 2998) was > 100 µM (inactive) and the GI50 (K562) was > 100 µM (inactive). The GI50 (M14) was > 100 µM (inactive), the GI50 (HOP-92) was > 100 µM (inactive) and the GI50 (COLO 205) was > 100 µM (inactive). For the same molecule, the GI50 (HOP-62) was > 100 µM (inactive), the GI50 (A498) was > 100 µM (inactive) and the GI50 (SNB-75) was > 74.6 µM (inactive). For the same molecule, the GI50 (CCRF-CEM) was > 100 µM (inactive), the GI50 (UO-31) was > 100 µM (inactive) and the GI50 (SF-268) was > 100 µM (inactive). For the same molecule, the GI50 (NCI-H23) was > 100 µM (inactive), the GI50 (MDA-N) was > 100 µM (inactive) and the GI50 (OVCAR-3) was > 100 µM (inactive). For the same molecule, the GI50 (MOLT-4) was > 100 µM (inactive), the GI50 (NCI-H226) was > 100 µM (inactive) and the GI50 (DU-145) was > 100 µM (inactive). The GI50 (NCI-H460) was > 100 µM (inactive), the GI50 (MDA-MB-435) was > 100 µM (inactive) and the GI50 (LOX IMVI) was > 100 µM (inactive). The GI50 (SF-295) was > 100 µM (inactive), the GI50 (OVCAR-5) was > 100 µM (inactive) and the GI50 (PC-3) was > 100 µM (inactive). For the same molecule, the GI50 (BT-549) was > 100 µM (inactive), the GI50 (786-0) was > 100 µM (inactive) and the GI50 (SNB-19) was > 100 µM (inactive). The GI50 (T47D) was > 100 µM (inactive), the GI50 (CAKI-1) was > 100 µM (inactive) and the GI50 (SN12C) was > 100 µM (inactive). The GI50 (HCT-116) was > 100 µM (inactive).

— ChEMBL document CHEMBL1201862, “PubChem BioAssay data set” (2004)
